# Source: US20210128492A1, “COMPOSITION FOR PREVENTING AND/OR IMPROVING BRAIN DYSFUNCTION COMPRISING A LUTEIN OR SALT THEREOF AND A PLANT PRODUCT OF THE GENUS TRAPA” (Santen Pharmaceutical Co., Ltd., priority 2017, published 2021)
# Key:
# [1] = test system: Slc:ddY (SPF) mice injected with β-amyloid solution; experiment: Y-maze test (spontaneous alternation test) in mice injected with β-amyloid solution; type: in vivo, mouse
# Procedure: Slc:ddY (SPF:Specific-Pathogen-Free) mice (Supply Resource: Japan SLC, Inc.) received the administration a sample (Vehicle control, Trapa japonica extract, Lutein, or Trapa japonica extract+Lutein) and then the injection of β-amyloid solution. For the mice, Y-maze test was performed to evaluate the improvement effects of Trapa japonica extract, Lutein, and a combination thereof on learning disorder. The test was performed twice. The Y-maze test was performed according to Takayoshi MAMIYA et al., “Effects of Pre-Germinated Brown Rice on β-Amyloid Protein-Induced Learning and Memory Deficits in Mice”, Biol. Pharm. Bull., July 2004, 27(7), 1041-1045 to evaluate the effects.
# Male, 5-week-old, Slc:ddY (SPF) mouse(Body weight: 23˜28 g: n=32)
# According to the following procedure, model mice were made using the above mice: Each mouse was anesthetized with the intraperitoneal administration (dosing volume: 10 mL/kg) of pentobarbital sodium (TOKYO CHEMICAL INDUSTRY CO., LTD.) at 40 mg/kg. After anesthesia, levobupivacaine hydrochloride (POPSCAINE® 0.25% injection, Maruishi Pharmaceutical Co., Ltd.) (0.1 mL) was administered subcutaneously into the scalp of the mouse. The hair on the top of the mouse was trimmed, and the head part was fixed to a brain stereotactic device. The scalp of the mouse was sterilized with iodine tincture, and then the head part was incised to expose the skull and the connective tissue on the skull was removed with a cotton swab. The treated skull was dried with a blower to find the position of bregma more easily. A hole for inserting a stainless steel pipe was drilled in the skull at 1 mm to the right and 0.2 mm behind bregma with a dental drill. The stainless steel pipe connected to a silicon tube with an outside diameter of 0.5 mm and a micro syringe was perpendicularly inserted to a depth of 2.5 mm from the bone surface. 3 μL of a β-amyloid solution ([…]) was injected (in the sham operation group, 3 μL of water for injection was injected) into the cerebral ventricle with a microsyringe pump for 3 minutes. After the injection, the inserted stainless steel pipe was allowed to stand for 3 minutes, and then the pipe was slowly removed. After removing the stainless steel pipe, the cranial was closed with a non-absorbable myelostatic agent (NESTOP®, Alfresa Pharma Co., Ltd.) and the scalp was sutured. The mouse were removed from the brain stereotactic device and returned to the breeding cage.
# The β-amyloid solution was prepared by dissolving β-amyloid (Amyloid-β Protein(25-35); Polypeptide Laboratories) to 2 mM with water for injection and incubating the solution in the constant temperature storage at 37° C. for 4 days. Water for injection was used as the vehicle for sham operation. […]
# [2] = test system: pyramidal cell layer of the hippocampus CA1 region; experiment: Histopathological assessment of KB stained brain specimens from the mice of Test Example 1; type: in vivo, mouse
# Procedure: The brain was isolated from the mice in each group of Test Example 1 to prepare histopathological specimens, and the histopathological assessment of the prepared histopathological specimens was performed. Such test was performed twice. Each mouse in each group of Test Example 1 was anesthetized with an isoflurane solution and the chest of the mouse was opened to expose the heart. The exposed heart was cut into the auricle thereof. A polypropylene disposable syringe with an injection needle was used, the injection needle thereof was inserted from left ventricle and about 30 mL of ice-cooled saline was injected into the heart, and then the heart was perfused with about 30 mL of 10 vol % formalin neutral buffer solution. […] The isolated brain was embedded in paraffin according to any conventional method, one histopathological section was discontinuously prepared at around bregma-1.70 mm and around bregma-2.80 mm, respectively, and then Klüver-Barrera stained (KB stained) tissue specimens were prepared from each section. The cut brain was stored in 10 vol % formalin neutral buffer solution. • 1) For each specimen, the images of pyramidal cell layers of the hippocampus CA1 region closest to bregma-1.70 mm and bregma-2.80 mm from the optical microscope image (George Paxinos and Keith B. J. Franklin. (2013). The Mouse Brain in stereotaxic coordinates.
# [3] = 8 minutes, about 1 hour after administration on the 14th day, gavage once per day for 14 days (Trapa japonica extract 2 mg/kg, Lutein 0.4 mg/kg, combination 2 + 0.4 mg/kg), β-amyloid on day 8, average of n=10
# [4] = β-amyloid model mice, 14 days gavage
smiles,measurement,setting,value
"CC1=C[C@H](O)CC(C)(C)[C@H]1/C=C/C(C)=C/C=C/C(C)=C/C=C/C=C(C)/C=C/C=C(C)/C=C/C1=C(C)C[C@@H](O)CC1(C)C [Lutein, (3R,3′R,6′R)-β,ε-carotene-3,3′-diol]",Spontaneous alternation rate,[1]; [3],59.3%
same,The number of spontaneous alternation,[1]; [3],21.2 Count
same,The total number of entries,[1]; [3],37.0 Count
same,Spontaneous alternation rate as compared to the vehicle control group (in words),[1]; [4],not improved
same,Area of pyramidal cell layer,"[2]; hippocampus CA1 region, KB stained specimens, mice of Test Example 1 (gavage 14 days; Trapa japonica extract 2 mg/kg, Lutein 0.4 mg/kg, combination 2 + 0.4 mg/kg), average of n=2",224874 μm^2
same,Area of pyramidal cell layer of the hippocampus CA1 region as compared to the vehicle control group (in words),[2]; [4],increased
